# US6355799B1, “Substituted benzene compounds, process for their preparation, and herbicidal and defoliant compositions containing them” (ISK Americas Incorporated, priority 1997, dated 2002)
# How the values were obtained:
# Assay type in all cases: in vivo
# [1] = test system: sicklepod (Cassia obtusifolia, CASOB); assay: Pre-emerge test, greenhouse herbicide activity screening; settings: rating scale 0-100, 14 days after application
# In short: (§1)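 Fourteen days after spraying, crop and weed injury was graded visually from 0, no effect, to 100, every plant dead. Test substances were dissolved in acetone and applied at 15–1000 g ai/ha with a flat-fan nozzle. Application was either pre-emergence, one day after sowing, or post-emergence at the 2–3 leaf stage.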
# [2] = test system: velvetleaf (Abutilon theophrasti, ABUTH); assay: as above; settings: rating scale 0-100, 14 days after application
# In short: as §1
# [3] = test system: ivyleaf morningglory (Ipomoea hederacea, IPOHE); assay: as above; settings: rating scale 0-100, 14 days after application
# In short: as §1
# [4] = test system: green foxtail (Setaria viridis, SETVI); assay: as above; settings: rating scale 0-100, 14 days after application
# In short: as §1
# [5] = test system: large crabgrass (Digitaria sanguinalis, DIGSA); assay: as above; settings: rating scale 0-100, 14 days after application
# In short: as §1
# [6] = test system: johnsongrass (Sorghum halepense, SORHA); assay: as above; settings: rating scale 0-100, 14 days after application
# In short: as §1
# [7] = test system: barnyardgrass (Echinochloa crus-galli, ECHCG); assay: as above; settings: rating scale 0-100, 14 days after application
# In short: as §1
# [8] = test system: lambsquarters (Chenopodium album, CHEAL); assay: as above; settings: rating scale 0-100, 14 days after application
# In short: as §1
# [9] = test system: upland rice (Oryza sp., var. Tebonnet, RICE); assay: Pre-emerge test, crop safety; settings: rating scale 0-100, 14 days after application
# In short: (§2)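 Compounds in acetone were track-sprayed at 15-1000 g ai/ha (187 l/ha) on sandy loam pots: pre-emerge one day after seeding, post-emerge at 2-3 leaf stage with 0.25% v/v non-ionic surfactant. Phytotoxicity was rated 14 days later on a 0 (no damage) to 100 (complete death) scale.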
# [10] = test system: field corn (Zea mays L., var. Dekalb 535, CORN); assay: Pre-emerge test, crop safety; settings: rating scale 0-100, 14 days after application
# In short: as §2
# [11] = test system: sicklepod (Cassia obtusifolia, CASOB); assay: Post-emerge test, greenhouse herbicide activity screening; settings: rating scale 0-100 (0 no damage, 100 complete death), 14 days after application
# In short: (§3)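 Plants grown in 10 cm pots of sandy loam mix received acetone-dissolved compounds through a moving flat-fan nozzle. Doses ranged from 15 to 1000 g ai/ha. Pre-emerge pots were seeded one day earlier, post-emerge pots 8–21 days earlier. Fourteen days on, each pot was graded 0–100 for damage.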
# [12] = test system: redroot pigweed (Amaranthus retroflexus, AMARE); assay: as above; settings: rating scale 0-100 (0 no damage, 100 complete death), 14 days after application
# In short: as §3
# [13] = test system: velvetleaf (Abutilon theophrasti, ABUTH); assay: as above; settings: rating scale 0-100 (0 no damage, 100 complete death), 14 days after application
# In short: as §3
# [14] = test system: ivyleaf morningglory (Ipomoea hederacea, IPOHE); assay: as above; settings: rating scale 0-100 (0 no damage, 100 complete death), 14 days after application
# In short: as §3
# [15] = test system: green foxtail (Setaria viridis, SETVI); assay: as above; settings: rating scale 0-100 (0 no damage, 100 complete death), 14 days after application
# In short: as §3
# [16] = test system: common ragweed (Ambrosia artemisizfolia L., AMBEL); assay: as above; settings: rating scale 0-100 (0 no damage, 100 complete death), 14 days after application
# In short: as §3
# [17] = test system: large crabgrass (Digitaria sanguinalis, DIGSA); assay: as above; settings: rating scale 0-100 (0 no damage, 100 complete death), 14 days after application
# In short: as §3
# [18] = test system: johnsongrass (Sorghum halepense, SORHA); assay: as above; settings: rating scale 0-100 (0 no damage, 100 complete death), 14 days after application
# In short: as §3
# [19] = test system: barnyardgrass (Echinochloa crus-galli, ECHCG); assay: as above; settings: rating scale 0-100 (0 no damage, 100 complete death), 14 days after application
# In short: as §3
# [20] = test system: lambsquarters (Chenopodium album, CHEAL); assay: as above; settings: rating scale 0-100 (0 no damage, 100 complete death), 14 days after application
# In short: as §3
# [21] = test system: upland rice (Oryza sp., var. Tebonnet, RICE); assay: Post-emerge test, crop safety; settings: rating scale 0-100 (0 no damage, 100 complete death), 14 days after application
# In short: as §1
# [22] = test system: field corn (Zea mays L., var. Dekalb 535, CORN); assay: Post-emerge test, crop safety; settings: rating scale 0-100 (0 no damage, 100 complete death), 14 days after application
# In short: as §1
# [23] = test system: redroot pigweed (Amaranthus retroflexus, AMARE); assay: Pre-emerge test, greenhouse herbicide activity screening; settings: rating scale 0-100, 14 days after application
# In short: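 Herbicidal damage is scored 0 (none) to 100 (complete plant death) two weeks after a simulated field spray. Rates span 15–1000 g ai/ha, delivered in acetone at 187 l/ha. For post-emergence treatments, plants have 2–3 leaves and the spray carries 0.25% v/v non-ionic surfactant.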
smiles,measurement,setting,value
"COc1c(Cl)cc(F)c(-n2c(=O)cc(C(F)(F)F)n(C)c2=O)c1CC(Cl)C(=O)OCC(C)C (single isomer, unassigned) [14-15]","Pre-emerge herbicidal activity, phytotoxicity rating CASOB",[1]; 63 g ai/ha,0
same,"Pre-emerge herbicidal activity, phytotoxicity rating CASOB",[1]; 250 g ai/ha,40
same,"Pre-emerge herbicidal activity, phytotoxicity rating ABUTH",[2]; 63 g ai/ha,50
same,"Pre-emerge herbicidal activity, phytotoxicity rating ABUTH",[2]; 250 g ai/ha,100
same,"Pre-emerge herbicidal activity, phytotoxicity rating IPOHE",[3]; 63 g ai/ha,0
same,"Pre-emerge herbicidal activity, phytotoxicity rating IPOHE",[3]; 250 g ai/ha,20
same,"Pre-emerge herbicidal activity, phytotoxicity rating SETVI",[4]; 63 g ai/ha,0
same,"Pre-emerge herbicidal activity, phytotoxicity rating SETVI",[4]; 250 g ai/ha,30
same,"Pre-emerge herbicidal activity, phytotoxicity rating DIGSA",[5]; 63 g ai/ha,70
same,"Pre-emerge herbicidal activity, phytotoxicity rating DIGSA",[5]; 250 g ai/ha,100
same,"Pre-emerge herbicidal activity, phytotoxicity rating SORHA",[6]; 63 g ai/ha,0
same,"Pre-emerge herbicidal activity, phytotoxicity rating SORHA",[6]; 250 g ai/ha,0
same,"Pre-emerge herbicidal activity, phytotoxicity rating ECHCG",[7]; 63 g ai/ha,0
same,"Pre-emerge herbicidal activity, phytotoxicity rating ECHCG",[7]; 250 g ai/ha,80
same,"Pre-emerge herbicidal activity, phytotoxicity rating CHEAL",[8]; 63 g ai/ha,20
same,"Pre-emerge herbicidal activity, phytotoxicity rating CHEAL",[8]; 250 g ai/ha,95
same,"Pre-emerge phytotoxicity rating, crop damage RICE",[9]; 63 g ai/ha,0
same,"Pre-emerge phytotoxicity rating, crop damage RICE",[9]; 250 g ai/ha,0
same,"Pre-emerge phytotoxicity rating, crop damage CORN",[10]; 63 g ai/ha,0
same,"Pre-emerge phytotoxicity rating, crop damage CORN",[10]; 250 g ai/ha,0
same,"Post-emerge Herbicidal Activity, phytotoxicity rating CASOB",[11]; Rate 63 g ai/ha,0
same,"Post-emerge Herbicidal Activity, phytotoxicity rating CASOB",[11]; Rate 250 g ai/ha,50
same,"Post-emerge Herbicidal Activity, phytotoxicity rating AMARE",[12]; Rate 63 g ai/ha,100
same,"Post-emerge Herbicidal Activity, phytotoxicity rating AMARE",[12]; Rate 250 g ai/ha,100
same,"Post-emerge Herbicidal Activity, phytotoxicity rating ABUTH",[13]; Rate 63 g ai/ha,60
same,"Post-emerge Herbicidal Activity, phytotoxicity rating ABUTH",[13]; Rate 250 g ai/ha,90
same,"Post-emerge Herbicidal Activity, phytotoxicity rating IPOHE",[14]; Rate 63 g ai/ha,50
same,"Post-emerge Herbicidal Activity, phytotoxicity rating IPOHE",[14]; Rate 250 g ai/ha,90
same,"Post-emerge Herbicidal Activity, phytotoxicity rating SETVI",[15]; Rate 63 g ai/ha,70
same,"Post-emerge Herbicidal Activity, phytotoxicity rating SETVI",[15]; Rate 250 g ai/ha,80
same,"Post-emerge Herbicidal Activity, phytotoxicity rating AMBEL",[16]; Rate 63 g ai/ha,20
same,"Post-emerge Herbicidal Activity, phytotoxicity rating AMBEL",[16]; Rate 250 g ai/ha,100
same,"Post-emerge Herbicidal Activity, phytotoxicity rating DIGSA",[17]; Rate 63 g ai/ha,95
same,"Post-emerge Herbicidal Activity, phytotoxicity rating DIGSA",[17]; Rate 250 g ai/ha,100
same,"Post-emerge Herbicidal Activity, phytotoxicity rating SORHA",[18]; Rate 63 g ai/ha,50
same,"Post-emerge Herbicidal Activity, phytotoxicity rating SORHA",[18]; Rate 250 g ai/ha,40
same,"Post-emerge Herbicidal Activity, phytotoxicity rating ECHCG",[19]; Rate 63 g ai/ha,100
same,"Post-emerge Herbicidal Activity, phytotoxicity rating ECHCG",[19]; Rate 250 g ai/ha,100
same,"Post-emerge Herbicidal Activity, phytotoxicity rating CHEAL",[20]; Rate 63 g ai/ha,50
same,"Post-emerge Herbicidal Activity, phytotoxicity rating CHEAL",[20]; Rate 250 g ai/ha,100
same,Post-emerge phytotoxicity rating RICE (crop damage),[21]; Rate 63 g ai/ha,0
same,Post-emerge phytotoxicity rating RICE (crop damage),[21]; Rate 250 g ai/ha,0
same,Post-emerge phytotoxicity rating CORN (crop damage),[22]; Rate 63 g ai/ha,20
same,Post-emerge phytotoxicity rating CORN (crop damage),[22]; Rate 250 g ai/ha,60
same,"Pre-emerge herbicidal activity, phytotoxicity rating AMARE",[23]; 63 g ai/ha,100
same,"Pre-emerge herbicidal activity, phytotoxicity rating AMARE",[23]; 250 g ai/ha,100
"COc1c(Cl)cc(F)c(-n2c(=O)cc(C(F)(F)F)n(C)c2=O)c1CC(Cl)C(=O)OCC(F)(F)C(F)(F)C(F)(F)F (single isomer, unassigned) [14-23]","Pre-emerge herbicidal activity, phytotoxicity rating CASOB",[1]; 63 g ai/ha,0
same,"Pre-emerge herbicidal activity, phytotoxicity rating CASOB",[1]; 250 g ai/ha,0
same,"Pre-emerge herbicidal activity, phytotoxicity rating ABUTH",[2]; 63 g ai/ha,0
same,"Pre-emerge herbicidal activity, phytotoxicity rating ABUTH",[2]; 250 g ai/ha,80
same,"Pre-emerge herbicidal activity, phytotoxicity rating IPOHE",[3]; 63 g ai/ha,0
same,"Pre-emerge herbicidal activity, phytotoxicity rating IPOHE",[3]; 250 g ai/ha,30
same,"Pre-emerge herbicidal activity, phytotoxicity rating SETVI",[4]; 63 g ai/ha,0
same,"Pre-emerge herbicidal activity, phytotoxicity rating SETVI",[4]; 250 g ai/ha,40
same,"Pre-emerge herbicidal activity, phytotoxicity rating DIGSA",[5]; 63 g ai/ha,30
same,"Pre-emerge herbicidal activity, phytotoxicity rating DIGSA",[5]; 250 g ai/ha,90
same,"Pre-emerge herbicidal activity, phytotoxicity rating SORHA",[6]; 63 g ai/ha,0
same,"Pre-emerge herbicidal activity, phytotoxicity rating SORHA",[6]; 250 g ai/ha,80
same,"Pre-emerge herbicidal activity, phytotoxicity rating ECHCG",[7]; 63 g ai/ha,10
same,"Pre-emerge herbicidal activity, phytotoxicity rating ECHCG",[7]; 250 g ai/ha,30
same,"Pre-emerge herbicidal activity, phytotoxicity rating CHEAL",[8]; 63 g ai/ha,0
same,"Pre-emerge herbicidal activity, phytotoxicity rating CHEAL",[8]; 250 g ai/ha,90
same,"Pre-emerge phytotoxicity rating, crop damage RICE",[9]; 63 g ai/ha,0
same,"Pre-emerge phytotoxicity rating, crop damage RICE",[9]; 250 g ai/ha,0
same,"Pre-emerge phytotoxicity rating, crop damage CORN",[10]; 63 g ai/ha,0
same,"Pre-emerge phytotoxicity rating, crop damage CORN",[10]; 250 g ai/ha,0
same,"Post-emerge Herbicidal Activity, phytotoxicity rating CASOB",[11]; Rate 63 g ai/ha,20
same,"Post-emerge Herbicidal Activity, phytotoxicity rating CASOB",[11]; Rate 250 g ai/ha,70
same,"Post-emerge Herbicidal Activity, phytotoxicity rating AMARE",[12]; Rate 63 g ai/ha,50
same,"Post-emerge Herbicidal Activity, phytotoxicity rating AMARE",[12]; Rate 250 g ai/ha,100
same,"Post-emerge Herbicidal Activity, phytotoxicity rating ABUTH",[13]; Rate 63 g ai/ha,50
same,"Post-emerge Herbicidal Activity, phytotoxicity rating ABUTH",[13]; Rate 250 g ai/ha,90
same,"Post-emerge Herbicidal Activity, phytotoxicity rating IPOHE",[14]; Rate 63 g ai/ha,80
same,"Post-emerge Herbicidal Activity, phytotoxicity rating IPOHE",[14]; Rate 250 g ai/ha,95
same,"Post-emerge Herbicidal Activity, phytotoxicity rating SETVI",[15]; Rate 63 g ai/ha,60
same,"Post-emerge Herbicidal Activity, phytotoxicity rating SETVI",[15]; Rate 250 g ai/ha,70
same,"Post-emerge Herbicidal Activity, phytotoxicity rating AMBEL",[16]; Rate 63 g ai/ha,50
same,"Post-emerge Herbicidal Activity, phytotoxicity rating AMBEL",[16]; Rate 250 g ai/ha,40
same,"Post-emerge Herbicidal Activity, phytotoxicity rating DIGSA",[17]; Rate 63 g ai/ha,50
same,"Post-emerge Herbicidal Activity, phytotoxicity rating DIGSA",[17]; Rate 250 g ai/ha,95
same,"Post-emerge Herbicidal Activity, phytotoxicity rating SORHA",[18]; Rate 63 g ai/ha,40
same,"Post-emerge Herbicidal Activity, phytotoxicity rating SORHA",[18]; Rate 250 g ai/ha,50
same,"Post-emerge Herbicidal Activity, phytotoxicity rating ECHCG",[19]; Rate 63 g ai/ha,100
same,"Post-emerge Herbicidal Activity, phytotoxicity rating ECHCG",[19]; Rate 250 g ai/ha,100
same,"Post-emerge Herbicidal Activity, phytotoxicity rating CHEAL",[20]; Rate 63 g ai/ha,50
same,"Post-emerge Herbicidal Activity, phytotoxicity rating CHEAL",[20]; Rate 250 g ai/ha,80
same,Post-emerge phytotoxicity rating RICE (crop damage),[21]; Rate 63 g ai/ha,0
same,Post-emerge phytotoxicity rating RICE (crop damage),[21]; Rate 250 g ai/ha,20
same,Post-emerge phytotoxicity rating CORN (crop damage),[22]; Rate 63 g ai/ha,0
same,Post-emerge phytotoxicity rating CORN (crop damage),[22]; Rate 250 g ai/ha,40
same,"Pre-emerge herbicidal activity, phytotoxicity rating AMARE",[23]; 63 g ai/ha,95
same,"Pre-emerge herbicidal activity, phytotoxicity rating AMARE",[23]; 250 g ai/ha,100
